From ChEMBL document CHEMBL5647694, “Novel orally bioavailable EZH1/2 dual inhibitors with greater antitumor efficacy than an EZH2 selective inhibitor” (Cancer Sci, 2017) come the findings set out here.

Experiment [1] addresses ALK tyrosine kinase receptor (Homo sapiens) (UniProt Q9UM73). The experiment can be described thus: Inhibition of N-terminal GST-fused wild type human ALK cytoplasmic domain (1058 to 1620 residues ) expressed in baculovirus-infecetd Sf21 cells using Srctide as substrate at 1 uM in presence of ATP by Mobility shift assay.
The target in experiment [2] is Epidermal growth factor receptor (Homo sapiens) (UniProt P00533). The experiment in a line: Inhibition of N-terminal GST-fused human EGFR cytoplasmic domain (669 to 1210 residues) expressed in baculovirus-infected Sf21 cells using Srctide as substrate at 1 uM in presence of ATP by Mobility shift assay.
For experiment [3], the target named is Ephrin type-A receptor 4 (Homo sapiens) (UniProt P54764). The experiment can be described thus: Inhibition of N-terminal GST-fused human EPHA4 cytoplasmic domain (586 to 986 residues) expressed in baculovirus-infected Sf21 cells using Blk/Lyntide as substrate at 1 uM in presence of ATP by Mobility shift assay.
The target of experiment [4] is Ephrin type-B receptor 4 (Homo sapiens) (UniProt P54760). The experiment in a line: Inhibition of N-terminal GST-fused human EPHB4 cytoplasmic domain (577 to 987 residues) expressed in baculovirus-infected Sf21 cells using Blk/Lyntide as substrate at 1 uM in presence of ATP by Mobility shift assay.
Experiment [5] addresses Fibroblast growth factor receptor 2 (Homo sapiens) (UniProt P21802). The experiment in a line: Inhibition of N-terminal GST-fused human FGFR2 cytoplasmic domain (399 to 821 residues) expressed in baculovirus-infected Sf21 cells using CSKtide as substrate at 1 uM in presence of ATP by Mobility shift assay.
In experiment [6] the target is Tyrosine-protein kinase FRK (Homo sapiens) (UniProt P42685). The experiment in a line: Inhibition of N-terminal GST-fused human FRK catalytic domain (223 to 505 residues) expressed in baculovirus-infected Sf21 cells using Srctide as substrate at 1 uM in presence of ATP by Mobility shift assay.
In experiment [7] the target is Insulin receptor-related protein (Homo sapiens) (UniProt P14616). The experiment in a line: Inhibition of N-terminal fused human IRR cytoplasmic domain (953 to 1297 residues) expressed in baculovirus-infected Sf21 cells using IRS1 as substrate at 1 uM in presence of ATP by Mobility shift assay.
The target of experiment [8] is Platelet-derived growth factor receptor beta (Homo sapiens) (UniProt P09619). The experiment can be described thus: Inhibition of N-terminal GST-tagged human PDGFR-beta cytoplasmic domain (557 to 1106 residues) expressed in baculovirus-infected Sf21 cells using CSKtide as substrate at 1 uM in presence of ATP by Mobility shift assay.
In experiment [9] the target is Vascular endothelial growth factor receptor 2 (Homo sapiens) (UniProt P35968). The experiment can be described thus: Inhibition of N-terminal GST-tagged human KDR cytoplasmic domain (790 to 1356 residues) expressed in baculovirus-infected Sf21 cells using CSKtide as substrate at 1 uM in presence of ATP by Mobility shift assay.
The target in experiment [10] is High affinity nerve growth factor receptor (Homo sapiens) (UniProt P04629). The experiment in a line: Inhibition of N-terminal GST-tagged human TRKA cytoplasmic domain (436 to 790 residues) expressed in baculovirus-infected Sf21 cells using CSKtide as substrate at 1 uM in presence of ATP by Mobility shift assay.
For experiment [11], the target named is Tyrosine-protein kinase TXK (Homo sapiens) (UniProt P42681). The experiment can be described thus: Inhibition of N-terminal GST-tagged human TXK catalytic domain (260 to 527 residues) expressed in baculovirus-infected Sf21 cells using Srctide as substrate at 1 uM in presence of ATP by Mobility shift assay.
The target in experiment [12] is Non-receptor tyrosine-protein kinase TYK2 (Homo sapiens) (UniProt P29597). The experiment can be described thus: Inhibition of N-terminal GST-tagged human TYK2 catalytic domain (871 to 1187 residues) expressed in baculovirus-infected Sf21 cells using Srctide as substrate at 1 uM in presence of ATP by Mobility shift assay.
Experiment [13] addresses Tyrosine-protein kinase ZAP-70 (Homo sapiens) (UniProt P43403). The experiment in a line: Inhibition of N-terminal GST-tagged full length human ZAP70 (1 to 619 residues) expressed in baculovirus-infected Sf21 cells using Blk/Lyntide as substrate at 1 uM in presence of ATP by Mobility shift assay.
Experiment [14] deals with Aurora kinase A (Homo sapiens) (UniProt O14965). The experiment can be described thus: Inhibition of N-terminal GST-fused full length human AurA (1 to 403 residues) expressed in baculovirus-infected Sf21 cells using Kemptide as substrate at 1 uM in presence of ATP by Mobility shift assay.
For experiment [15], the target named is MAP kinase-interacting serine/threonine-protein kinase 1 (Homo sapiens) (UniProt Q9BUB5). The experiment can be described thus: Inhibition of N-terminal GST-fused full length human MNK1 (1 to 424 residues) expressed in baculovirus expression system using RS peptide as substrate at 1 uM in presence of ATP by Mobility shift assay.
Experiment [16] has as its target Ribosomal protein S6 kinase alpha-5 (Homo sapiens) (UniProt O75582). The experiment can be described thus: Inhibition of N-terminal GST-fused full length human MSK1 (1 to 802 residues) expressed in baculovirus expression system using Crosstide as substrate at 1 uM in presence of ATP by Mobility shift assay.
Experiment [17] addresses Mitogen-activated protein kinase 11 (Homo sapiens) (UniProt Q15759). The experiment can be described thus: Inhibition of N-terminal GST-fused full length human p38beta (1 to 364 residues) expressed in Escherichia coli expression system using Modified Erktide as substrate at 1 uM in presence of ATP by Mobility shift assay.
For experiment [18], the target named is Serine/threonine-protein kinase PAK 1 (Homo sapiens) (UniProt Q13153). The experiment can be described thus: Inhibition of N-terminal GST-fused full length human PAK1 (1 to 545 residues) expressed in baculovirus expression system using LIMKtide as substrate at 1 uM in presence of ATP by Mobility shift assay.
Experiment [19] deals with Protein kinase C theta type (Homo sapiens) (UniProt Q04759). The experiment in a line: Inhibition of N-terminal GST-fused human full length PKC-theta (1 to 706 residues ) expressed in baculovirus expression system using PKC peptide as substrate at 1 uM in presence of ATP by Mobility shift assay.
Experiment [20] addresses Serine/threonine-protein kinase PLK2 (Homo sapiens) (UniProt Q9NYY3). The experiment in a line: Inhibition of N-terminal GST-fused full length human PLK2 (1 to 685 residues) expressed in baculovirus expression system using CHK2 peptide as substrate at 1 uM in presence of ATP by IMAP.
The target in experiment [21] is SRSF protein kinase 2 (Homo sapiens) (UniProt P78362). The experiment can be described thus: Inhibition of N-terminal GST-fused full length human SRPK2 (1 to 688 residues) expressed in baculovirus expression system using DYRKtide-F as substrate at 1 uM in presence of ATP by Mobility shift assay.
The target in experiment [22] is Serine/threonine-protein kinase TAO2 (Homo sapiens) (UniProt Q9UL54). The experiment can be described thus: Inhibition of N-terminal GST-fused human TAOK2 catalytic domain (1 to 319 residues) expressed in baculovirus expression system using TAOKtide as substrate at 1 uM in presence of ATP by Mobility shift assay.
Experiment [23] addresses Testis-specific serine/threonine-protein kinase 1 (Homo sapiens) (UniProt Q9BXA7). The experiment in a line: Inhibition of N-terminal GST-fused full length human TSSK1 (1 to 367 residues) expressed in baculovirus expression system using GS peptide as substrate at 1 uM in presence of ATP by Mobility shift assay.

As a reminder, the inhibition is the relative decrease from the control value, in per cent.

Chain of Serine/threonine-protein kinase TAO2 (Homo sapiens) (Q9UL54 whole entry, the tested form may be a part): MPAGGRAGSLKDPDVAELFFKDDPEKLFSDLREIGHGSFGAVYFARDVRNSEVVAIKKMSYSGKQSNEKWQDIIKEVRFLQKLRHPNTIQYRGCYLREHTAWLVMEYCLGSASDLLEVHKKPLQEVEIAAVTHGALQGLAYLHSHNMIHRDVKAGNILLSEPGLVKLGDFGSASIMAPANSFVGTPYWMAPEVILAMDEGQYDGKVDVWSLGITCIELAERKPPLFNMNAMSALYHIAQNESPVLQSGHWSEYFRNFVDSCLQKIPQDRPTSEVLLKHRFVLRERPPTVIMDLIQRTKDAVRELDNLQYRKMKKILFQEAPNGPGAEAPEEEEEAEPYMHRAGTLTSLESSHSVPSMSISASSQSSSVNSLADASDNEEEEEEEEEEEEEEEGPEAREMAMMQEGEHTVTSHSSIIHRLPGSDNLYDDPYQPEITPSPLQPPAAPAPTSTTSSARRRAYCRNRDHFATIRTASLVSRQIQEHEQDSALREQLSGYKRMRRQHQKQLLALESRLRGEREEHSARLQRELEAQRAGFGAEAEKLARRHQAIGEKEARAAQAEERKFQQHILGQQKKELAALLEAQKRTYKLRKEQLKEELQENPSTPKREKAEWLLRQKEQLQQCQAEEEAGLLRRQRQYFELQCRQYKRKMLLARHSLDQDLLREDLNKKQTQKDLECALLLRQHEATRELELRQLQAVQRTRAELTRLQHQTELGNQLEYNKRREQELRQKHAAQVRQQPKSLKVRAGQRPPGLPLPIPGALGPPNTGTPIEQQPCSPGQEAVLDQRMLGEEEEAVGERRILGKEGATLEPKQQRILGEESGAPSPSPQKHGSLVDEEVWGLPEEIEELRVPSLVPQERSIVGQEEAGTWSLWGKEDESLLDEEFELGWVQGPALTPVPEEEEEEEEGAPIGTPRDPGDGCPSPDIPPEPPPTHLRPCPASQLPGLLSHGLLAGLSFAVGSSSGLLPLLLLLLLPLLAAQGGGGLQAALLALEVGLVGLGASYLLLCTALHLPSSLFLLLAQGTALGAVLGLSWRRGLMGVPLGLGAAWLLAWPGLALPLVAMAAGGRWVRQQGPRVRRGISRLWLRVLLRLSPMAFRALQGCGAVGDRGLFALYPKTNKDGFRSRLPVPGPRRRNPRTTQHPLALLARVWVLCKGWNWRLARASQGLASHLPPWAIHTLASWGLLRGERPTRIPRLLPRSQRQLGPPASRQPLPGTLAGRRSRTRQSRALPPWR
Chain of Epidermal growth factor receptor (Homo sapiens) (P00533 whole entry, the tested form may be a part): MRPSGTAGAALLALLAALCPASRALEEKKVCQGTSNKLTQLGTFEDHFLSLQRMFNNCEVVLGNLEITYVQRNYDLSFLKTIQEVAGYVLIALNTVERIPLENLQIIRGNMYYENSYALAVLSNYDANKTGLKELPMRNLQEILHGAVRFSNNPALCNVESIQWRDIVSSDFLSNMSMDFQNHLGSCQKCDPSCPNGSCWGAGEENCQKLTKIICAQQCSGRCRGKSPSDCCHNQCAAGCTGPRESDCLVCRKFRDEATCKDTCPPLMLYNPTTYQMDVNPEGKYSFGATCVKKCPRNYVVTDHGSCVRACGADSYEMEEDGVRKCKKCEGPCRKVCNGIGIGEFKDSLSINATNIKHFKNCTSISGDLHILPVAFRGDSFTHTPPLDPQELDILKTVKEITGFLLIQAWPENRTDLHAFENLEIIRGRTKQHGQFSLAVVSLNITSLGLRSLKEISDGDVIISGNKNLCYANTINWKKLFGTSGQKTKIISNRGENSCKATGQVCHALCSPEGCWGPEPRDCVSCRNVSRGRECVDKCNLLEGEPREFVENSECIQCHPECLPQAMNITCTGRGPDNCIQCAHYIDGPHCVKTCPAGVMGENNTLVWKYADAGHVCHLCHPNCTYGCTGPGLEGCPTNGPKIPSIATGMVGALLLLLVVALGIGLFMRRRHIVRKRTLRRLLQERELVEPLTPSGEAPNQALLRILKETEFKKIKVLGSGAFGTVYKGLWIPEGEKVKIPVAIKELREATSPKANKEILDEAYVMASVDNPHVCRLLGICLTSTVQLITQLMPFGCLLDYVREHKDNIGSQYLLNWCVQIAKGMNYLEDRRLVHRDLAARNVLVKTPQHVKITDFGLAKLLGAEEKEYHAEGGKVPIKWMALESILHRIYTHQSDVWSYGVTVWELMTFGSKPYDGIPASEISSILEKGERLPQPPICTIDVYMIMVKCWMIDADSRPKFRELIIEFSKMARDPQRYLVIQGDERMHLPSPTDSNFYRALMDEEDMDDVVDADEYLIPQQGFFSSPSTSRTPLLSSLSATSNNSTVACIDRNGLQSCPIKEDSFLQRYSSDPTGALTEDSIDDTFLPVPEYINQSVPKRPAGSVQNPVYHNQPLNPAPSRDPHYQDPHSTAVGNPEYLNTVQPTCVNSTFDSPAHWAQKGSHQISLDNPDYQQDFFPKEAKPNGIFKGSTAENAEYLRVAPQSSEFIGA
Chain of Testis-specific serine/threonine-protein kinase 1 (Homo sapiens) (Q9BXA7 whole entry, the tested form may be a part): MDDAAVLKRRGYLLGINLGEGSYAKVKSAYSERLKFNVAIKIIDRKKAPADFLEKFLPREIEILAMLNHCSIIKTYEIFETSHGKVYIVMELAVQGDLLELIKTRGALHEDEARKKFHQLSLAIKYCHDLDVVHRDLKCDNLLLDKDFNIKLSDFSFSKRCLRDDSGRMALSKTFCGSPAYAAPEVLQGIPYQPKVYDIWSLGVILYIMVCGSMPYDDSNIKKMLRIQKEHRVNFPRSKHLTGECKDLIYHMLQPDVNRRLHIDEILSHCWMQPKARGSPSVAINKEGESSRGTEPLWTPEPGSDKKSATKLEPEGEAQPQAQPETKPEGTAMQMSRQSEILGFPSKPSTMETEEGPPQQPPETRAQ
Chain of Protein kinase C theta type (Homo sapiens) (Q04759 whole entry, looked up, the tested form may be a part): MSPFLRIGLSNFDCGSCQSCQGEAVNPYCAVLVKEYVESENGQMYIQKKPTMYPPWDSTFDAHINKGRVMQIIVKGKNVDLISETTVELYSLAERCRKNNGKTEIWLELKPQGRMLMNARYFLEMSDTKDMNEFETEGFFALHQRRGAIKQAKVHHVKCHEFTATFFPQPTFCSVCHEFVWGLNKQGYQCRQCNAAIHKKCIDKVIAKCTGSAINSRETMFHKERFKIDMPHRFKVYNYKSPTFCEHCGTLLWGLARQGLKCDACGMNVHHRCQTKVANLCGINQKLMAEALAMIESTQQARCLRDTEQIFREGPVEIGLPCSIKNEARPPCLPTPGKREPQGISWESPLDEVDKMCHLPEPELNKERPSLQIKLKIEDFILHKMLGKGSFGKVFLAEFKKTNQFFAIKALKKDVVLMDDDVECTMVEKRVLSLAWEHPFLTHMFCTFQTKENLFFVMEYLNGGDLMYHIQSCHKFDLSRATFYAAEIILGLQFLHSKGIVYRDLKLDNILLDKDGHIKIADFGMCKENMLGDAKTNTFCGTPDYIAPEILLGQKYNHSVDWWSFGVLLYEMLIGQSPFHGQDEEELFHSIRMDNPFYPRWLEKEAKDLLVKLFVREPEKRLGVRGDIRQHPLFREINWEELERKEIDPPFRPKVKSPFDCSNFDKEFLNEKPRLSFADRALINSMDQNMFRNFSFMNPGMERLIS
Chain of Tyrosine-protein kinase TXK (Homo sapiens) (P42681 whole entry, the tested form may be a part): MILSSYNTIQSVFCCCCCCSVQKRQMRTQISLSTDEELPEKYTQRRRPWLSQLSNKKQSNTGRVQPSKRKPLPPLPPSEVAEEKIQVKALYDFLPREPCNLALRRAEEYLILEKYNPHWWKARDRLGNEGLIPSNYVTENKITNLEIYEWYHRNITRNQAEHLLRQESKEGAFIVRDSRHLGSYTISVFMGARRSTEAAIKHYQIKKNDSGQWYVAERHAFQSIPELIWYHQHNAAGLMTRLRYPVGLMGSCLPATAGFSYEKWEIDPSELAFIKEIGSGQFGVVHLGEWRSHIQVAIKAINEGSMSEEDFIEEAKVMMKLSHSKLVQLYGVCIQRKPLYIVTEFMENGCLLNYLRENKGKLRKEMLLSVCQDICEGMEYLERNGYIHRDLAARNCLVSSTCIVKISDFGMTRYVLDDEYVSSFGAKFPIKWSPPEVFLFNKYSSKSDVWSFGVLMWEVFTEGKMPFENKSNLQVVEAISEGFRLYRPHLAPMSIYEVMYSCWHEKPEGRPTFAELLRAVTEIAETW
Chain of Tyrosine-protein kinase FRK (Homo sapiens) (P42685 whole entry, the tested form may be a part): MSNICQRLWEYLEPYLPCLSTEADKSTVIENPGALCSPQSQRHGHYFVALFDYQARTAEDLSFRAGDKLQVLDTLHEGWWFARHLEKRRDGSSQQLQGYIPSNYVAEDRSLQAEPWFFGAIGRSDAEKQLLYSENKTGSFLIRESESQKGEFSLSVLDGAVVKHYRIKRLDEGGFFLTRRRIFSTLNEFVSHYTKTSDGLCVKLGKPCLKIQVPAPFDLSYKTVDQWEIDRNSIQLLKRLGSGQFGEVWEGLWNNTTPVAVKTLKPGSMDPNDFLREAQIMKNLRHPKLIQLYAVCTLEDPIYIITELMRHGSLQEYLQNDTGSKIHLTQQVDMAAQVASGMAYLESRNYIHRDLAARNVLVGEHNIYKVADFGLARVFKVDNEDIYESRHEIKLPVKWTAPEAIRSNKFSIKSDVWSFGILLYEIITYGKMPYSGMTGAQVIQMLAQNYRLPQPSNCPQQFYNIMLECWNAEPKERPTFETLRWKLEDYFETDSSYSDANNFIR
Chain of Aurora kinase A (Homo sapiens) (O14965 whole entry, the tested form may be a part): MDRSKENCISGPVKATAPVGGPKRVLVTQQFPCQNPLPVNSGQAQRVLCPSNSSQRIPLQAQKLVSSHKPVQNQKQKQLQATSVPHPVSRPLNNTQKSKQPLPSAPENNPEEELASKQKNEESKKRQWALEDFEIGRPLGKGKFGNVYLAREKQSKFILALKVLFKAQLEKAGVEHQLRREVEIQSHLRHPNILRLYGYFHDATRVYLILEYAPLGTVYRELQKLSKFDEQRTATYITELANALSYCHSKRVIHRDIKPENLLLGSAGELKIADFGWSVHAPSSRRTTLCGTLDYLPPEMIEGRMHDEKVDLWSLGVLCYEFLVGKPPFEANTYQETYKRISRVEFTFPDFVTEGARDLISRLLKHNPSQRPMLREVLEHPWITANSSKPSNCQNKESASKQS

As for `Cc1cc(C)c(CNC(=O)c2cc(Br)c3c(c2C)O[C@@](C)([C@H]2CC[C@H](N(C)C)CC2)O3)c(=O)[nH]1`, the inhibition in experiment [1] was -2.8%; in [2], -2%; in experiment [3], -4.3%; in experiment [4], -6.1%; in [5], -2.6%; in [6], -3.6%. The inhibition was -8.8% in experiment [7]; -1.3% in [8]; -1.1% in [9]; -5.1% in experiment [10]; 1.3% in experiment [11]; -2.4% in experiment [12]. The inhibition was -6.2% in experiment [13]; 0.6% in experiment [14]; -0.2% in [15]; 1.4% in [16]; -3.1% in [17]; 2.3% in experiment [18]. The inhibition in experiment [19] was 6.6%; in experiment [20], 11.8%; in [21], -1.6%; in [22], -2.8%; in experiment [23], -2.6%.

Consider `Cc1cc(C)c(CNC(=O)c2cc(Cl)c3c(c2C)O[C@@](C)([C@H]2CC[C@H](N(C)C)CC2)O3)c(=O)[nH]1` [VALEMETOSTAT], for which the inhibition is -9.1% in experiment [1]; -1.8% in [2]; -3% in experiment [3]; -4.7% in experiment [4]; -4% in experiment [5]; -4.5% in [6]. Also, the inhibition was -4.6% in [7]; -4.5% in [8]; -3% in experiment [9]; -5.7% in [10]; -7% in experiment [11]; -8.8% in experiment [12]. Also, the inhibition in [13] is -5.4%; in [14], -0.5%; in [15], 0.2%; in experiment [16], 0.4%; in experiment [17], -5.6%; in experiment [18], 2.6%. Also, the inhibition in experiment [19] was -0.6%; in experiment [20] it was 4.8%; in experiment [21], 0%; in experiment [22], -0.5%; in experiment [23], -4.9%.
